The values below come from patent publication US20250368633A1, “AZEPINE FUSED RING COMPOUND AS RIPK1 INHIBITOR AND USE THEREOF” (ARTIVILA BIOPHARMA, priority 2022, published 2025).

What is called inhibition is how much of the control response was suppressed. One may read the EC50 as the midpoint of the concentration-response curve.

The target of assay [1] is T1, RIPK1 kinase (Homo sapiens, UniProt Q13546).
T1 construct: purchased Promega VA7593
T1 sequence (Q13546 1-671): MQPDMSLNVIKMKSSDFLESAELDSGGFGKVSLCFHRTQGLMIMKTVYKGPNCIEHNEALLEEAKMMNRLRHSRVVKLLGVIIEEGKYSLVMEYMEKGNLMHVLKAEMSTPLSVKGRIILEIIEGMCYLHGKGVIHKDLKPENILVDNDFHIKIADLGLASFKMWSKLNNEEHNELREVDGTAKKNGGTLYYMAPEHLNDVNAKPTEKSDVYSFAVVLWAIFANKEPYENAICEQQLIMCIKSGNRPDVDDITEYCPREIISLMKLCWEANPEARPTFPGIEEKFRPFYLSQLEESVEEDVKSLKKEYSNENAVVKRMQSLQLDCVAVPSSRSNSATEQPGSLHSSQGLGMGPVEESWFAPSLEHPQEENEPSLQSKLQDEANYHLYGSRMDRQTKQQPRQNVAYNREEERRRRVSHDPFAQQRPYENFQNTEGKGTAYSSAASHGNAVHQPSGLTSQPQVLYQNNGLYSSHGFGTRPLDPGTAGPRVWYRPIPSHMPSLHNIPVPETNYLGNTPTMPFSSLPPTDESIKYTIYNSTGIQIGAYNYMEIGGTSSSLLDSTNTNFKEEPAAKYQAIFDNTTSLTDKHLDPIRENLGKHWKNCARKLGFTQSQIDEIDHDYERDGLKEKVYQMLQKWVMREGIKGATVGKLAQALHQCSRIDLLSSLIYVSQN
In words: In vitro RIPK1 kinase activity assay (ADP-Glo), inhibition by compounds at 1 μM. Format: biochemical. The note with it: compound 1 μM; ATP 10 μM; MBP substrate 100 μg/mL; read-out: RIPK1 kinase activity inhibition rate range. On the procedure:
RIPK1 kinase activity was assayed using the ADP-Glo assay and RIPK1 kinase reaction system (Promega, catalog number: VA7593). The RIPK1 kinase activity assay was performed according to the Promega kit manual.
The experimental method was briefly described as below. The concentration of RIPK1 kinase in the RIPK1 kinase reaction system was determined by kinase titration and S/B10. Compounds were diluted with 1× kinase buffer D (1% DMSO), and 1 μL of 100 μM compound DMSO stock solution was added to 19 μL 1× kinase buffer D. RIPK1 kinase was diluted with 1× kinase buffer D. 2.5×ATP/substrate was diluted with 1× kinase buffer D. The final concentration of ATP in the kinase reaction system was 10 μM, and the final concentration of MBP substrate was 100 μg/mL. 1 μL of diluted compound and 2 μL of diluted RIPK1 kinase were mixed, incubated at room temperature for 15 minutes, 2 μL of 2.5×ATP/substrate was added, mixed, and incubated at room temperature for 1 hour. 5 μL of ADP-Glo reagent was added to each well and incubated at room temperature for 1 hour. 10 μL of ADP detection reagent was added to each well and incubated at room temperature for another 0.5-1 hour. The chemiluminescent signal was read by a microplate reader and the inhibition rate of kinase activity was calculated.

The test system of assay [2] is U937 cells. In words: Inhibition rate of compound (1 μM) on necroptosis of U937 cells (TSZ-induced, CellTiter-Glo). Format: cell-based. The note with it: TSZ (hTNF-α, SM-164, Z-VAD-FMK) 20 hours. An outline of the steps: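 Percent inhibition comes from ATP luminescence (CellTiter-Glo), referenced to wells without TSZ and wells with TSZ alone. The compound was added to U937 cells 15 min ahead of a TNF-α/SM-164/Z-VAD-FMK mix, followed by 20 h culture at 37° C, 5% CO2.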
(Cellular ATP, detected with luciferase, serves as a proxy for viable cell number.)

Assay [3] relates to U937 cells. In words: EC50 of necroptosis inhibition in U937 cells (TSZ-induced, CellTiter-Glo). Format: cell-based. To be noted: Homo sapiens, U-937; TSZ (hTNF-α, SM-164, Z-VAD-FMK) 20 hours; 10 concentration points; read-out: EC50 intervals of necroptosis inhibition in U937 cells. The gist of the method: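 Luminescent ATP readout (CellTiter-Glo) after 20 h gave viability of TSZ-challenged U937 cells; compounds were added 15 min ahead of TNF-α/SM-164/Z-VAD-FMK. EC50 derived by variable-slope nonlinear regression of inhibition relative to no-TSZ and TSZ-alone controls.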

Turning to `CN1C(=O)[C@@H](NC(=O)C(=O)NCCc2ccccc2)COc2ccc(C#CCOc3ccccc3)cc21` [Example 28, (S)—N^1-(5-methyl-4-oxo-7-(3-phenyloxyprop-1-yn-1-yl)-2,3,4,5-tetrahydrobenzo[b][1,4]oxazepin-3-yl)-N^2-phenethyloxalamide], the inhibition at 1 µM in assay [1] was ≥ 75%. The “Inhibition rate range of compounds (1 μM) on U937 cell necroptosis” value (shortened to “Inhibition rate range of compounds”) in assay [2] is on record as “A (A: ≥90%)”. Besides, the EC50 in assay [3] was < 100 nM.
Take `C[C@H](O)C#Cc1ccc2c(c1)N(C)C(=O)[C@@H](NC(=O)C(=O)NCCc1ccccc1)CO2` [Example 30, N^1-((S)-7-((S)-3-hydroxybut-1-yn-1-yl)-5-methyl-4-oxo-2,3,4,5-tetrahydrobenzo[b][1,4]oxazepin-3-yl)-N^2-phenethyloxalamide]: the inhibition at 1 µM in assay [1] lay within 50 to 74%. Besides, the “Inhibition rate range of compounds” value in assay [2] is on record as “A (A: ≥90%)”. In assay [3], the EC50 is 100 to 500 nM.
In the case of `CN1C(=O)[C@@H](NC(=O)C(=O)NCc2ccccc2F)COc2ccc(C#CCCO)cc21` [Example 38, (S)—N^1-(2-fluorobenzyl)-N^2-(7-(4-hydroxybut-1-yn-1-yl)-5-methyl-4-oxo-2,3,4,5-tetrahydrobenzo[b][1,4]oxazepin-3-yl)oxalamide], in assay [1], the inhibition at 1 µM is 50 to 74%. The “Inhibition rate range of compounds” value in assay [2] was “A (A: ≥90%)”. Also, the concentration for a half-maximal effect (EC50) in assay [3] lay within 100 to 500 nM.
With `CN1C(=O)[C@@H](NC(=O)C(=O)NCCc2ccccc2)COc2ccc(C#CCN3CCNCC3)cc21` [Example 49, (S)—N^1-(5-methyl-4-oxo-7-(3-(piperazin-1-yl)prop-1-yn-1-yl)-2,3,4,5-tetrahydrobenzo[b][1,4]oxazepin-3-yl)-N^2-phenethyloxalamide], in assay [1], the inhibition at 1 µM was 50 to 74%. Also, the “Inhibition rate range of compounds” value in assay [2] is on record as “A (A: ≥90%)”. For the same compound, the EC50 in assay [3] was 100 to 500 nM.
As to `CN1C(=O)[C@@H](NC(=O)C(=O)NCCc2ccccc2)COc2ccc(C#CC3CCN(CCOCCOCC(=O)OC(C)(C)C)CC3)cc21` [Example 53, tert-butyl (S)-2-(2-(2-(4-((5-methyl-4-oxo-3-(2-oxo-2-(phenethylamino)acetamido)-2,3,4,5-tetrahydrobenzo[b][1,4]oxazepin-7-yl)ethynyl)piperidin-1-yl)ethoxy)ethoxy)acetate], in assay [1], the inhibition at 1 µM is 25 to 49%. The “Inhibition rate range of compounds” value in assay [2] is recorded as “A (A: ≥90%)”. Moreover, the EC50 in assay [3] is < 100 nM.
In the case of `CN1C(=O)[C@@H](NC(=O)C(=O)NCCc2ccccc2)COc2ccc(C#CC3CCN(CCOCCOCC(=O)O)CC3)cc21` [Example 54, (S)-1-(2-(2-(carboxymethoxy)ethoxy)ethyl)-4-((5-methyl-4-oxo-3-(2-oxo-2-(phenethylamino)acetamido)-2,3,4,5-tetrahydrobenzo[b][1,4]oxazepin-7-yl)ethynyl)piperidin-1-ium 2,2,2-trifluoroacetate], the inhibition at 1 µM in assay [1] fell in the range of 50 to 74%. In assay [2], the “Inhibition rate range of compounds” value is “B (B: 50-89%)”. The EC50 in assay [3] lay in the range of 500 to 2000 nM.
On the same counts, the results for `Cc1ncsc1-c1ccc(CNC(=O)[C@@H]2C[C@@H](O)CN2C(=O)[C@@H](NC(=O)COCCOCCN2CCC(C#Cc3ccc4c(c3)N(C)C(=O)[C@@H](NC(=O)C(=O)NCCc3ccccc3)CO4)CC2)C(C)(C)C)cc1` [Example 55, N^1-((S)-7-((1-(2-(2-(2-(((S)-1-((2S,4R)-4-hydroxy-2-((4-(4-methylthiazol-5-yl)benzyl)carbamoyl)pyrrolidin-1-yl)-3,3-dimethyl-1-oxobutan-2-yl)amino)-2-oxoethoxy)ethoxy)ethyl)piperidin-4-yl)ethynyl)-5-methyl-4-oxo-2,3,4,5-tetrahydrobenzo[b][1,4]oxazepin-3-yl)-N^2-phenethyloxalamide] are 50 to 74%, “A (A: ≥90%)” and < 100 nM.
For `CN1C(=O)[C@@H](NC(=O)C(=O)NCCc2ccccc2)COc2ccc(C#CC3CCN(CCOCCOCC(=O)Nc4cccc5c4CN(C4CCC(=O)NC4=O)C5=O)CC3)cc21` (stereo partly drawn) [Example 56, N^1-((3S)-7-((1-(2-(2-(2-(2-(2,6-dioxopiperidin-3-yl)-(1-oxoisoindolin-4-yl)amino)-2-oxoethoxy)ethoxy)ethyl)piperidin-4-yl)ethynyl)-5-methyl-4-oxo-2,3,4,5-tetrahydrobenzo[b][1,4]oxazepin-3-yl)-N^2-phenethyloxalamide], the inhibition at 1 µM in assay [1] is 25 to 49%. Further, in assay [2], the “Inhibition rate range of compounds” value is listed as “A (A: ≥90%)”. In assay [3], the EC50 was < 100 nM.
Take `CN1C(=O)[C@@H](NC(=O)C(=O)NCCc2ccccc2)COc2ccccc21` [Example 57, (S)—N^1-(5-methyl-4-oxo-2,3,4,5-tetrahydrobenzo[b][1,4]oxazepin-3-yl)-N^2-phenethyloxalamide]: in assay [1], the inhibition at 1 µM is ≥ 75%. In addition, the “Inhibition rate range of compounds” value in assay [2] was “A (A: ≥90%)”. Moreover, the EC50 in assay [3] was in the range of 100 to 500 nM.
Take `CN1C(=O)[C@@H](NC(=O)C(=O)NCc2ccccc2)COc2ccccc21` [Example 58, (S)—N^1-benzyl-N^2-(5-methyl-4-oxo-2,3,4,5-tetrahydrobenzo[b][1,4]oxazepin-3-yl)oxalamide]: the inhibition at 1 µM in assay [1] lay in the range of 25 to 49%. The “Inhibition rate range of compounds” value in assay [2] was “B (B: 50-89%)”. For the same compound, the EC50 in assay [3] lay in the range of 500 to 2000 nM.
`CN1C(=O)C(NC(=O)C(=O)NCCc2ccccc2)CCc2cc(Br)ccc21` (stereo not drawn) [Example 63, N^1-(7-bromo-1-methyl-2-oxo-2,3,4,5-tetrahydro-1H-benzo[b]azepin-3-yl)-N^2-phenethyloxalamide]: the inhibition at 1 µM in assay [1] is 25 to 49%. Besides, in assay [2], the “Inhibition rate range of compounds” value is “A (A: ≥90%)”. The EC50 in assay [3] lay in the range of 100 to 500 nM.
On the same counts, the results for `CN1C(=O)C(NC(=O)C(=O)NCc2ccccc2)CCc2ccccc21` (stereo not drawn) [Example 68, N^1-benzyl-N^2-(1-methyl-2-oxo-2,3,4,5-tetrahydro-1H-benzo[b]azepin-3-yl)oxalamide] are ≥ 75%, “B (B: 50-89%)” and 500 to 2000 nM.
On to `CN1C(=O)C(NC(=O)C(=O)NCCc2ccccc2)CCc2cccnc21` (stereo not drawn) [Example 69, N^1-(9-methyl-8-oxo-6,7,8,9-tetrahydro-5H-pyrido[2,3-b]azepin-7-yl)-N^2-phenethyloxalamide], for which the inhibition at 1 µM in assay [1] was ≥ 75%. Further, in assay [2], the “Inhibition rate range of compounds” value was “B (B: 50-89%)”. The EC50 in assay [3] lay within 500 to 2000 nM.
Take `CN1C(=O)[C@H](NC(=O)C(=O)NCCc2ccccc2)COc2ccc(Br)cc21` [Example 71, (R)—N^1-(7-bromo-5-methyl-4-oxo-2,3,4,5-tetrahydrobenzo[b][1,4]oxazepin-3-yl)-N^2-phenethyloxalamide]: the inhibition at 1 µM in assay [1] was in the range of 50 to 74%. In assay [2], the “Inhibition rate range of compounds” value is “B (B: 50-89%)”. For the same compound, the EC50 in assay [3] lay in the range of 500 to 2000 nM.
Take `CN1C(=O)[C@@H](NC(=O)C(=O)NCCc2ccccc2)COc2ccc(C#CCn3ccnc3)cc21` [Example 72, (S)—N^1-(7-(3-(1H-imidazol-1-yl)prop-1-yn-1-yl)-5-methyl-4-oxo-2,3,4,5-tetrahydrobenzo[b][1,4]oxazepin-3-yl)-N^2-phenethyloxalamide]: the inhibition at 1 µM in assay [1] is ≥ 75%. Further, the “Inhibition rate range of compounds” value in assay [2] was “A (A: ≥90%)”. Also, the half-maximal effective concentration (EC50) in assay [3] was < 100 nM.
